Columns and labels:
human COX-2 = molecular target: T1, human COX-2 (Homo sapiens, UniProt P35354); test: Inhibition of PGE2 release in COS cells stably transfected with human COX-2; format: cell-based; conditions: COS cells transfected with human COX-2; 1 hour preincubation, 30 μM arachidonic acid for 15 minutes, PGE2 by enzyme immunoassay
T1 construct: expressed in transfected cells; host or cells: COS cells (stably transfected)
T1 sequence (P35354 18-604): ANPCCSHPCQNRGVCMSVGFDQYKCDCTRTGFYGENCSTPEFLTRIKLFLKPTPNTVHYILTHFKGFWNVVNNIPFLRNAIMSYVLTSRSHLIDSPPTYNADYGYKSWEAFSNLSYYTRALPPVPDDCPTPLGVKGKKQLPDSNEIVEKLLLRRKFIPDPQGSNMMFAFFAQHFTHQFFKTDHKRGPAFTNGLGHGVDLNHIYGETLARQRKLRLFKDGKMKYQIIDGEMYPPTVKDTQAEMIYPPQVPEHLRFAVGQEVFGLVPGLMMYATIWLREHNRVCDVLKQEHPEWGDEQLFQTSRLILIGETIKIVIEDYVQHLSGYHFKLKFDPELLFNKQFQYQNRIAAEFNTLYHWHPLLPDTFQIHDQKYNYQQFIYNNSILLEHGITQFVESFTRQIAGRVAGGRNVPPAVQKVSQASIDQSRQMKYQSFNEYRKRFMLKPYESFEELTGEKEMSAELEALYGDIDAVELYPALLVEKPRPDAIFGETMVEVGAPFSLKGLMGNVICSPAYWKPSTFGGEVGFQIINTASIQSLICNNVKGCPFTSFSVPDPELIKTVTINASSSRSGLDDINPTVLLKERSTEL
Protocol: (§1) Inhibitory activity against human COX-1 and COX-2 was assessed in COS cells which had been stably transfected with cDNA for human COX-1 and human COX-2. 24 Hours prior to experiment, COS cells were transferred from the 175 cm^2 flasks in which they were grown, onto 24-well cell culture plates using the following procedure. The incubation medium (Dulbecco's modified eagles medium (DMEM) supplemented with heat-inactivated foetal calf serum (10% v/v), penicillin (100 IU/ml), streptomycin (100μg/ml) and geneticin (600 μg/ml)) was removed from a flask of confluent cells (1 flask at confluency contains approximately 1×10^7 cells). 10 ml of phosphate buffered saline (PBS) was added to the flask to wash the cells. Having discarded the PBS, cells were then rinsed in 10 ml trypsin for 20 seconds, after which the trypsin was removed and the flask placed in an incubator (37°) for 1-2 minutes until cells became detached from the flask. The flask was then removed from the incubator and cells resuspended in 10 ml of fresh incubation medium. The contents of the flask was transferred to a 250 ml sterile container and the volume of incubation medium subsequently made up to 100 ml. 1 ml cell suspension was pipetted into each well of 4×24-well cell culture plates. The plates were then placed in an incubator (37° C., 95% air/5% CO2) overnight. If more than 1 flask of cells were required, the cells from the individual flasks were combined before being dispensed into the 24-well plates.
(§2) Following the overnight incubation, the incubation medium was completely removed from the 24-well cell culture plates and replaced with 250 μl fresh DMEM (37° C.). The test compounds were made up to 250× the required test concentration in DMSO and were added to the wells in a volume of 1 μl. Plates were then mixed gently by swirling and then placed in an incubator for 1 hour (37° C., 95% air/5% CO2). Following the incubation period, 10 μl of arachidonic acid (750 μM) was added to each well to give a final arachidonic acid concentration of 30 μM. Plates were then incubated for a further 15 minutes, after which the incubation medium was removed from each well of the plates and stored at −20° C., prior to determination of prostaglandin E2 (PGE2) levels using enzyme immunoassay. The inhibitory potency of the test compound was expressed as an IC50 value, which is defined as the concentration of the compound required to inhibit the PGE2 release from the cells by 50%. The selectivity ratio of inhibition of COX-1 versus COX-2 was calculated by comparing respective IC50 values. The following IC50 values for inhibition of COX-2 and COX-1 were obtained for compounds of the invention: […]

human COX-1 = molecular target: T2, human COX-1 (Homo sapiens, UniProt P23219); test: Inhibition of PGE2 release in COS cells stably transfected with human COX-1; format: cell-based; conditions: COS cells transfected with human COX-1; 1 hour preincubation, 30 μM arachidonic acid for 15 minutes, PGE2 by enzyme immunoassay
T2 construct: expressed in transfected cells; host or cells: COS cells (stably transfected)
T2 sequence (P23219 24-599): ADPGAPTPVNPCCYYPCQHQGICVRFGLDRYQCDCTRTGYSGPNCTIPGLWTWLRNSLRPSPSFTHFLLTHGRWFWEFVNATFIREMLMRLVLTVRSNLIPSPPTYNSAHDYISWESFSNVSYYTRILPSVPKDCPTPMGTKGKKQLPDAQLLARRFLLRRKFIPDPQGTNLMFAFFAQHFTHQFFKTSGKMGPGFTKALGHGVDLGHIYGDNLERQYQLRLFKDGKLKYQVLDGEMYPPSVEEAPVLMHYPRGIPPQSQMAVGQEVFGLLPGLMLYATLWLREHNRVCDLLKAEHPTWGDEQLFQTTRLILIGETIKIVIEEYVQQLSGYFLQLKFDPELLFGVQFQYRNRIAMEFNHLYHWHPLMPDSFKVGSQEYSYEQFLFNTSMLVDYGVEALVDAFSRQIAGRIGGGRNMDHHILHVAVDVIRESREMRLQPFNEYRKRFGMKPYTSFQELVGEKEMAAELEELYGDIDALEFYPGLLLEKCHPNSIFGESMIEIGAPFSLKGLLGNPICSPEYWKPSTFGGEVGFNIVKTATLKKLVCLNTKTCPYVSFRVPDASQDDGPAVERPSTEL
Protocol: as §1, §2

## NS(=O)(=O)c1ccc(-c2c(-c3ccc(F)cc3)nn3cc(Br)ccc23)cc1 [Example 3(vi), 4-[6-Bromo-2-(4-fluorophenyl)pyrazolo[1,5-a]pyridin-3-yl]benzenesulfonamide]
Human COX-2
  IC50: 1 nM
Human COX-1
  IC50: 6760 nM

## CCOc1ccc(-c2nn3cc(Cl)ccc3c2-c2ccc(S(N)(=O)=O)cc2)cc1 [Example 6, 4-[6-Chloro-2-(4-ethoxyphenyl)pyrazolo[1,5-a]pyridin-3-yl]benzenesulfonamide]
Human COX-2
  IC50: 12 nM
Human COX-1
  IC50: > 100000 nM

## N#Cc1ccc2c(-c3ccc(S(N)(=O)=O)cc3)c(-c3ccc(F)cc3)nn2c1 [Example 1(iv), 4-[6-Cyano-2-(4-fluorophenyl)pyrazolo[1,5-a]pyridin-3-yl]benzenesulfonamide]
Human COX-2
  IC50: 21 nM
Human COX-1
  IC50: 20900 nM

## NS(=O)(=O)c1ccc(-c2c(-c3ccc(F)cc3)nn3cc(Cl)ccc23)cc1 [Example 5(vi), 4-[6-Chloro-2-(4-fluorophenyl)pyrazolo[1,5-a]pyridin-3-yl]benzenesulfonamide]
Human COX-2
  IC50: 21 nM
Human COX-1
  IC50: 20900 nM

## NS(=O)(=O)c1ccc(-c2c(-c3ccccc3)nn3cc(Cl)ccc23)cc1 [8(iii), 4-[6-Chloro-2-phenyl-pyrazolo[1,5-a]pyridin-3-yl]benzenesulfonamide]
Human COX-2
  IC50: 5 nM
Human COX-1
  IC50: > 100000 nM

## CS(=O)(=O)c1ccc(-c2c(-c3ccc(F)cc3)nn3cc(Br)ccc23)cc1 [4(iii), 6-Bromo-2-(4-fluorophenyl)-3-[4-(methylsulfonyl)phenyl]pyrazolo[1,5-a]pyridine]
Human COX-2
  IC50: 5 nM
Human COX-1
  IC50: > 100000 nM

## CS(=O)(=O)c1ccc(-c2c(-c3ccc(F)cc3)nn3cc(C#N)ccc23)cc1 [Example 2, 2-(4-Fluorophenyl)-3-[4-(methylsulfonyl)phenyl]pyrazolo[1,5-a]pyridine-6-carbonitrile]
Human COX-2
  IC50: 12 nM
Human COX-1
  IC50: > 100000 nM

## NS(=O)(=O)c1ccc(-c2c(-c3cccc(F)c3)nn3cc(Cl)ccc23)cc1 [Example 7, 4-[6-Chloro-2-(3-fluorophenyl)pyrazolo[1,5-a]pyridin-3-yl]benzenesulfonamide]
Human COX-2
  IC50: 1 nM
Human COX-1
  IC50: 6760 nM
